The record followed here is patent US7456018B2, “Human hepatoma lines, methods for obtaining same and uses thereof” (priority 2001, dated 2008).

“Also recorded” adds a separate entry of the source.

In series [1] the test system is HBV. Nature of the series: HBs antigen in culture supernatant of HBV-infected HepaRG cells treated by 3TC (ELISA). Format: cell-based, hepatitis B virus. The following applies: after 8 days of treatment by 3TC, all doses. The procedure:
(§1) The cells are maintained and infected according to the protocols of Examples 1 and 5.
The antiviral treatment by 3TC is administered from the 8th day to the 15th day following the infection of the HepaRG cells, at final concentrations of 0.1 and 10 μM in the culture medium. A complete replenishment of the medium is carried out every two days. The supernatants are stored at −20° C. and the cell pellets at −80° C.
The viral antigen (HBs) was detected in the culture supernatant using the commercial ELISA test ETI-MAK-3® (SORIN).

The test system of series [2] is HBV. Nature of the series: Antiviral activity of 3TC on HBV-infected HepaRG cells, viral DNA by Amplicor-Monitor test. Format: cell-based, hepatitis B virus. The following applies: day 8 to 15 after infection, vs infected non-treated control. The procedure:
as §1
[…] A complete replenishment of the medium is carried out every two days. The supernatants are stored at −20° C. and the cell pellets at −80° C.
The viral DNA present in the culture supernatant could be detected and quantified by the Amplicor-Monitor test (ROCHE). The results are expressed as number of viral particles/ml. For the analysis of intracellular viral DNA, the cells were separated with trypsin and stored at −80° C. The total DNA was isolated according to the protocol described previously (Zoulim et al., 1998, Drug therapy for chronic hepatitis B virus replication. J. Hepatol. 29:151-168).

For series [3], the system named is HepaRG cells. Briefly: Biliary/hepatocyte route differentiation of HepaRG cells, in situ marking (indirect immunohistochemistry). As to Albumin expression: key: −/+: weakly positive; +: positive; ++: highly positive. As to Cytokeratin 7 expression: key: −/+: weakly positive; +: positive; ++: highly positive. As to α1 chain expression: key: −/+: weakly positive; +: positive; ++: highly positive. As to α6 chain expression: key: −/+: weakly positive; +: positive; ++: highly positive. As to γ-glutamyl transferase expression: key: −/+: weakly positive; +: positive; ++: highly positive. The following applies: HepaRG cells treated with 2% DMSO or 3.75 mM sodium butyrate. Further details: Cytokeratin 19 expression: key: −/+: weakly positive; +: positive; ++: highly positive. Format: cell-based, human. Here is the method:
HepaRG cells were separated, diluted to ⅕ in Williams' E medium to which 5 μg/ml of insulin, 100 U/ml of penicillin, 100 μg/ml of streptomycin, 510-5M of hydrocortisone hemisuccinate, 2 mM of L-glutamine and 10% FCS were added, then redistributed into wells with a plastic support. Four culture conditions were produced: • HepaRG cells were treated with 3.75 mM sodium butyrate in the maintenance medium as from the day following subculture according to the protocol described by Blouin et al. (1995, Specialization switch in differentiating embryonic rat liver progenitor cells in response to sodium butyrate, Exp. cell res., 217: 22-33). The medium is then replenished every 2-3 days, • the HepaRG cells were treated 5 days after subculture by 3.75 mM sodium butyrate or 2% DMSO. The medium was replenished every day for 5 days, • the HepaRG cells were treated at strong confluence by 3.75 mM sodium butyrate; the medium was replenished every 2-3 days, • the HepaRG cells were seeded on a plastic support or monolayer of rat primitive biliary epithelial cells in MEM alpha medium complemented with L-glutamine (2 mM), i-inositol (0.2 mM), folic acid ([…]), β-mercaptoethanol (10^−4 M), transferrin 200 μg/ml, 12.5% FCS and 12.5% horse serum. In certain situations, cytokines such as LIF, IL-3, SCF or G-CSF were added to the medium. This medium was replenished every 2-3 days. Indirect Immunohistochemistry
The cells after washing with PBS are fixed by a solution of 4% paraformaldehyde buffered by 0.1 M sodium cacodylate at pH 7.4 for 20 minutes at 4° C. They are then preserved in a PBS buffer until the time of the analysis.
The specific sites are saturated for 45 minutes with PBS containing 10% FCS. The samples are then treated with primary antibodies for an hour at ordinary temperature in PBS containing 0.05% saponin. After 3 washings in PBS containing 0.05% saponin, the samples are incubated with the second antibody coupled to peroxydase.
The morphological modifications observed in the presence of sodium butyrate are correlated to phenotypical changes (Blouin et al. 1995). We used four markers of differentiation towards the biliary route, γ-glutamyl transferase, the α6 chain of integrins and the cytokeratins 7 and 19 which normally disappear when the cells are directed towards the hepatocyte route. For differentiation towards the hepatocyte route, we looked for an increase in the expression of albumin and a reduction in the expression of the al chain of the integrins.

For series [4], the system named is HepaRG cells. Briefly: Toxicity of DMSO to HepaRG cells without corticoid. Type of series: cell-based, human. To be noted: 2% of DMSO, HepaRG cells in the absence of corticoid. The procedure:
A first series of experiments was carried out in order to study the effects of the absence of the corticoid on cells having always been maintained in its presence. In FIG. 9A, the HepaRG cells at passage 13, were kept for 2 additional passages either in the continuous presence of hydrocortisone (growth: HN), or in the absence of hydrocortisone (growth: HO). They were then induced to differentiate (diff.) for 3 weeks in the absence of hydrocortisone (HO) or in the presence of hydrocortisone 5×10^−5 M (HN), and in the presence of different concentrations of DMSO.
The withdrawal of the corticoid was carried out at confluence, i.e. at the time when the cells begin their differentiation.
The cells are kept in a culture medium without corticoid and their ability to carry out differentiation is tested after 2 (FIG. 9A) and 10 passages (FIG. 9B).

In series [5] the test system is HBV. Briefly: Infectability of HepaRG cells by HBV according to culture/differentiation medium, HbsAg secretion. Format: cell-based, hepatitis B virus. Here is the method:
The cells used for the infection are cells having been cultured according to the conditions defined in Example 1 (permanent presence of 5.10^−5M of hydrocortisone hemisuccinate) and having been maintained for a week at confluence, then for 2 weeks in the same medium with 2% of DMSO added.
These cells are incubated with the infectious source, diluted 10 times, in the culture medium with 4% of PEG 8000 (Sigma) added, for 20 hours at 37° C. The second part of this HBV infection protocol was established by Gripon et al., 1993, Virology, 192: 534-540.
At the end of the incubation, the cells are washed three times with culture medium and maintained in the presence of 2% of DMSO and 5.10^−5 M of hydrocortisone hemisuccinate until they are used.
The HBs antigen was detected in the medium using the ELISA kit (Monolisa AgHBs plus®) from Biorad Laboratories. The results are expressed in pg/ml of supernatant.
The ability of the HepaRG cells to be infected was studied as a function of their degree of differentiation. Using the methods described in Examples 1 and 2, the cell differentiation programme was modified.
A first series of infection was carried out on cells continually maintained in the presence of corticoid only, then in the presence of corticoid and different concentrations of DMSO, in order to induce different stages of differentiation.
This correlation was confirmed by a series of experiments carried out on cells infected at confluence (before their differentiation) then placed under optimum conditions in order to induce their differentiation.
Finally, the effectiveness of an infection carried out on undifferentiated cells multiplying actively was compared with that on cells with arrested growth and well-differentiated.

Series [6] deals with HCV. Briefly: Sensitivity of HCV replication in infected HepaRG cells to interferon α, viral RNA by RT-PCR. Type of series: cell-based. To be noted: 5 U.I./ml. The procedure: These cells are incubated for 48 hours at 37° C. with the infectious source, diluted 10 times, in the culture medium devoid of FCS and optionally with PEG 8000 (Sigma) added.
The replicative forms of the intracellular viral RNAs were isolated in all the cell lysates. The cells are recovered after separation with trypsin, then the total RNA is extracted using the High Pure RNA Isolation kit (Roche). The quantity of total RNA extracted is estimated by optical density in order to standardize the different samples. The quality and homogeneity of the RNAs are examined by visualizing the ribosomic RNAs (rRNA: 28S and 18S) on a 1% agarose gel stained with ethidium bromide.
The RNAs of the viral particles are extracted from the culture supernatant using the High Pure viral RNA kit (Roche).
By retrotranscription (RT), the complementary DNA (cDNA) of the viral RNAs of positive polarity is synthesized from a specific prime hybridizing at 5′ of the region which codes for the viral capsid protein. This oligonucleotide (5′-[…]-3′), designated as SEQ ID NO:1, derived from that described by Martell et al., 1999, Journal of Clinical Microbiology, 37: 327-332 , designated C-342. The cDNA is then amplified by the “Polymerase Chain Reaction” (PCR) technique using two primers hybridizing in the 5′ non-translated region of the viral genome. The primers used are as follows: the sense oligonucleotide (5′-TGAGTGTCGTRCAGCCTCC-3′), designated as SEQ ID NO:2, and the antisense oligonucleotide (5′-[…]-3′), designated as SEQ ID NO:3, which corresponds to that conceived by Mercier et al., 1999, Journal of Virological Methods, 77 1-9, designated NCR-3. The amplification product (amplicon of 190 pb) is visualized on a 2% agarose gel stained with ethidium bromide. A marker of molecular weight of DNA (M) is also deposited in order to verify the identity of the amplicon by its size. The effectiveness of the different stages is always controlled by detecting the viral RNA present in a standard (T+), which corresponds to a diluted serum, originating from an infected patient. […]

For the molecule `Nc1ccn([C@@H]2CS[C@H](CO)O2)c(=O)n1` [3TC], in series [1], the “HBs antigen in the culture supernatant” value is “constant whatever the dose and equal to the non-treated control”. Further, the “Inhibition (quantity of viral DNA)” value in series [2] (3TC 0.1 μM) worked out at 69; in series [2] (3TC 1 μM) it was 98; in series [2] (3TC 10 μM), 100.

Take `C[S+](C)[O-]` [DMSO]: the Albumin expression entry in series [3] is “++”. Further, in series [3], the α1 chain expression entry was “+”. Also, in series [3], the γ-glutamyl transferase expression result is “−/+”. For the same molecule, in series [4], the “Toxicity of the addition of DMSO” value is reported as “so toxic that its use is impossible; also recorded: highly toxic”. Also, the HbsAg secretion was 70 pg/mL in series [5] (DMSO 1% in differentiation medium after day 17, infection on day 15, supernatant 47 days after seeding); 214 pg/mL in series [5] (DMSO 1% in differentiation medium after day 17, infection on day 28, supernatant 47 days after seeding); 79 pg/mL in series [5] (DMSO 2% in differentiation medium after day 17, infection on day 15, supernatant 47 days after seeding); above 2000 pg/mL in series [5] (DMSO 2% in differentiation medium after day 17, infection on day 28, supernatant 47 days after seeding).

In the case of `CCCC(=O)[O-].[Na+]` [Sodium butyrate, sodium butyrate], in series [3], the Albumin expression entry is listed as “−/+”, the “Cytokeratin 7 expression” value was “+”, the “Cytokeratin 19 expression” value is recorded as “++” and the α1 chain expression entry was “−/+”. For the same molecule, in series [3], the α6 chain expression result is “+” and the γ-glutamyl transferase expression entry is “++”.

On to hydrocortisone hemisuccinate [HN], for which the HbsAg secretion in series [5] (culture HN, HN after 17th day, infection D3 (growth), 47 days after seeding) stood at 33 pg/mL; in series [5] (culture HN, HN after 17th day, infection D5 (growth), 47 days after seeding), 37 pg/mL; in series [5] (culture HN, HN after 17th day, infection D10 (confluence), 47 days after seeding), 93 pg/mL; in series [5] (culture HN, HN with 2% of DMSO after 17th day, infection D3 (growth), 47 days after seeding), 41 pg/mL; in series [5] (culture HN, HN with 2% of DMSO after 17th day, infection D5 (growth), 47 days after seeding), 84 pg/mL; in series [5] (culture HN, HN with 2% of DMSO after 17th day, infection D10 (confluence), 47 days after seeding) it was 171 pg/mL.

In the case of “interferon α: antiviral cytokine (Introna®, Schering-Plough, France)”, the “Extracellular viral RNA, kinetics” value in series [6] (after four days of incubation, Day 10 to Day 12) is “no extracellular viral RNA is detected”. Further, the “Viral RNA signal in the extracellular medium” value in series [6] (six days of treatment, 12th day after infection) was “complete disappearance of the signal”. Further, the “Drop of the intracellular viral RNA signal” value in series [6] (six days of treatment, 12th day after infection, serum No. 4) is “more than 60%”.
